Earlier results in publication PMC6347699 (Proceedings of the National Academy of Sciences of the …, 2019).
pKi: −log10 of the molar value. “Also recorded” adds a separate entry of the source. Ends that are not written are not given here.

How the values were obtained:
[1] = harsh denaturing conditions
[2] = system: Gram-negative enterobacteria; settings: range of Gram-negative enterobacteria

Substance	mode of inhibition with respect to NTPs (Eco RNAP)	pKi (Eco RNAP; read-out: Ki, inhibition of Eco RNAP in in vitro transcription reactions)	inhibition of RNAP backtracking (RNAP backtracking)	stability of structure and activity [1]	antimicrobial properties [2]	inhibition of Eco RNAP (Eco RNAP)
microcin J25 (GGAGHVPEYFVGIGTPISFYG; ends and bridges not checked; UniProt Q9X2V7 38-58, looked up) [MccJ25]	partially competitive; also recorded: partial competitive	~6.00	inhibit RNAP backtracking	stable to harsh denaturing conditions	antimicrobial properties against a range of Gram-negative enterobacteria	–
acinetodin [reference compound]	–	–	–	–	–	inhibit Eco RNAP
klebsidin [reference compound]	–	–	–	–	–	inhibit Eco RNAP
